According to patent US20210045385A1, “PYRIDAZINONE-SUBSTITUTED KETOXIMES AS HERBICIDES” (FMC Corporation, priority 2018, published 2021):

Columns and labels:
Assay type in all cases: in vivo
[1] = test system: Italian ryegrass (Lolium mutiflorum); assay: Test C preemergence, visual plant response rating
Summary of the method: (§1)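 Visual injury on a 0 (no effect) to 100 (complete control) scale versus untreated controls, scored approximately 10 d after treatment under greenhouse conditions. Treatments used surfactant-containing non-phytotoxic solvent formulations, sprayed onto loam–sand soil preemergence or onto one- to two-leaf plants 2–10 cm tall postemergence.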

[2] = test system: barnyardgrass (Echinochloa crus-galli); assay: Test C preemergence, visual plant response rating
Summary of the method: as §1

[3] = test system: foxtail, giant (giant foxtail, Setaria faberi); assay: Test C preemergence, visual plant response rating
Summary of the method: as §1

kochia (Bassia scoparia) [4] = assay: Test C preemergence, visual plant response rating
Summary of the method: as §1

[5] = test system: pigweed (Amaranthus retroflexus); assay: Test C preemergence, visual plant response rating
Summary of the method: as §1

[6] = test system: ragweed (common ragweed, Ambrosia artemisiifolia); assay: Test C preemergence, visual plant response rating
Summary of the method: as §1

[7] = test system: Italian ryegrass (Lolium mutiflorum); assay: Test C postemergence, visual plant response rating
Summary of the method: as §1

[8] = test system: barnyardgrass (Echinochloa crus-galli); assay: Test C postemergence, visual plant response rating
Summary of the method: as §1

[9] = test system: blackgrass (Alopecurus myosuroides); assay: Test C postemergence, visual plant response rating
Summary of the method: as §1

corn (Zea mays) = assay: Test C postemergence, visual plant response rating
Summary of the method: as §1

[10] = test system: foxtail, giant (giant foxtail, Setaria faberi); assay: Test C postemergence, visual plant response rating
Summary of the method: as §1

[11] = test system: galium (catchweed bedstraw, Galium aparine); assay: Test C postemergence, visual plant response rating
Summary of the method: as §1

kochia (Bassia scoparia) [12] = assay: Test C postemergence, visual plant response rating
Summary of the method: as §1

[13] = test system: pigweed (Amaranthus retroflexus); assay: Test C postemergence, visual plant response rating
Summary of the method: as §1

[14] = test system: ragweed (common ragweed, Ambrosia artemisiifolia); assay: Test C postemergence, visual plant response rating
Summary of the method: as §1

[15] = test system: wheat (Triticum aestivum); assay: Test C postemergence, visual plant response rating
Summary of the method: as §1

[16] = test system: barnyardgrass (Echinochloa crus-galli); assay: Test D flooded paddy test, visual plant response rating; details: 250 g ai/ha, scale 0 to 100 (0 no effect, 100 complete control), 13 to 15 d
Summary of the method: (§2)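 Rating is visual, on a 0 (no effect) to 100 (complete control) scale versus controls, taken 13 to 15 d after treatment in a greenhouse. Treatment went into paddy water kept 3 cm above the soil surface, with plants at the 2-leaf stage.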

[17] = test system: duck salad (Heteranthera limosa); assay: as above; details: 250 g ai/ha, scale 0 to 100 (0 no effect, 100 complete control), 13 to 15 d
Summary of the method: as §2

rice (Oryza sativa) = assay: as above; details: 250 g ai/ha, scale 0 to 100 (0 no effect, 100 complete control), 13 to 15 d
Summary of the method: as §2

[18] = test system: sedge umbrella (small-flower umbrella sedge, Cyperus difformis); assay: as above; details: 250 g ai/ha, scale 0 to 100 (0 no effect, 100 complete control), 13 to 15 d
Summary of the method: as §2

[19] = Test C, 31 g ai/ha, 0 is no effect, 100 is complete control
[20] = Test C, postemergence, 125 g ai/ha
[21] = Test C, 125 g ai/ha, 0 is no effect, 100 is complete control

SMILES	Ryegrass, Italian plant response rating (0 to 100 scale) [1, 19]	Barnyardgrass plant response rating (0 to 100 scale) [2, 19]	Foxtail, Giant plant response rating (0 to 100 scale) [3, 19]	Kochia plant response rating (0 to 100 scale) (kochia (Bassia scoparia) [4]; [19])	Pigweed plant response rating (0 to 100 scale) [5, 19]	Ragweed plant response rating (0 to 100 scale) [6, 19]	Ryegrass, Italian plant response rating (0 to 100 scale) ([7]; Postemergence, 31 g ai/ha)	Ryegrass, Italian plant response rating (0 to 100 scale) [7, 20]	Barnyardgrass plant response rating (0 to 100 scale) ([8]; Postemergence, 31 g ai/ha)	Barnyardgrass plant response rating (0 to 100 scale) [8, 20]	Blackgrass plant response rating (0 to 100 scale) ([9]; Postemergence, 31 g ai/ha)	Blackgrass plant response rating (0 to 100 scale) [9, 20]	Corn plant response rating (0 to 100 scale) (corn (Zea mays); Postemergence, 31 g ai/ha)	Corn plant response rating (0 to 100 scale) (corn (Zea mays); [20])	Foxtail, Giant plant response rating (0 to 100 scale) ([10]; Postemergence, 31 g ai/ha)	Foxtail, Giant plant response rating (0 to 100 scale) [10, 20]	Galium plant response rating (0 to 100 scale) ([11]; Postemergence, 31 g ai/ha)	Galium plant response rating (0 to 100 scale) [11, 20]	Kochia plant response rating (0 to 100 scale) (kochia (Bassia scoparia) [12]; Postemergence, 31 g ai/ha)	Kochia plant response rating (0 to 100 scale) (kochia (Bassia scoparia) [12]; [20])	also measured
Cc1nn(C)c(=O)c(C(=NOC(C)C)c2cc(Cl)cc(Cl)c2F)c1O [Compound 167]	100	100	100	70	100	80	100	100	80	90	80	90	30	70	90	90	80	100	80	100	Ryegrass, Italian plant response rating (0 to 100 scale) ([1]; 125 g ai/ha): 100; Barnyardgrass plant response rating (0 to 100 scale) ([2]; 125 g ai/ha): 100; Foxtail, Giant plant response rating (0 to 100 scale) ([3]; 125 g ai/ha): 100; Kochia plant response rating (0 to 100 scale) (kochia (Bassia scoparia) [4]; 125 g ai/ha): 100; Pigweed plant response rating (0 to 100 scale) ([5]; 125 g ai/ha): 100; Ragweed plant response rating (0 to 100 scale) ([6]; 125 g ai/ha): 100; Pigweed plant response rating (0 to 100 scale) ([13]; Postemergence, 31 g ai/ha): 100; Pigweed plant response rating (0 to 100 scale) [13, 20]: 100; Ragweed plant response rating (0 to 100 scale) ([14]; Postemergence, 31 g ai/ha): 100; Ragweed plant response rating (0 to 100 scale) [14, 20]: 100; Wheat plant response rating (0 to 100 scale) ([15]; Postemergence, 31 g ai/ha): 70; Wheat plant response rating (0 to 100 scale) [15, 20]: 100; Plant response rating, Barnyardgrass (Flood) [16]: 95; Plant response rating, Ducksalad (Flood) [17]: 70; Plant response rating, Rice (Flood) (rice (Oryza sativa)): 65; Plant response rating, Sedge, Umbrella (Flood) [18]: 95
CON=C(c1cccc(OC(F)F)c1)c1c(O)c(C)nn(C)c1=O [Compound 202]	0	0	0	0	0	0	10	30	0	10	0	0	0	0	0	0	40	70	10	40	Ryegrass, Italian plant response rating (0 to 100 scale) [1, 21]: 10; Barnyardgrass plant response rating (0 to 100 scale) [2, 21]: 0; Foxtail, Giant plant response rating (0 to 100 scale) [3, 21]: 0; Kochia plant response rating (0 to 100 scale) (kochia (Bassia scoparia) [4]; [21]): 0; Pigweed plant response rating (0 to 100 scale) [5, 21]: 0; Ragweed plant response rating (0 to 100 scale) [6, 21]: 10; Pigweed plant response rating (0 to 100 scale) ([13]; Postemergence, 31 g ai/ha): 20; Pigweed plant response rating (0 to 100 scale) [13, 20]: 60; Ragweed plant response rating (0 to 100 scale) ([14]; Postemergence, 31 g ai/ha): 0; Ragweed plant response rating (0 to 100 scale) [14, 20]: 20; Wheat plant response rating (0 to 100 scale) ([15]; Postemergence, 31 g ai/ha): 0; Wheat plant response rating (0 to 100 scale) [15, 20]: 0; Plant response rating, Barnyardgrass (Flood) [16]: 0; Plant response rating, Ducksalad (Flood) [17]: 0; Plant response rating, Rice (Flood) (rice (Oryza sativa)): 0; Plant response rating, Sedge, Umbrella (Flood) [18]: 0
CON=C(c1cc(Cl)cc(Cl)c1Cl)c1c(O)c(C)nn(C)c1=O [Compound 213]	70	70	60	20	100	70	90	100	80	80	30	80	20	40	70	80	90	90	60	70	Ryegrass, Italian plant response rating (0 to 100 scale) [1, 21]: 100; Barnyardgrass plant response rating (0 to 100 scale) [2, 21]: 90; Foxtail, Giant plant response rating (0 to 100 scale) [3, 21]: 80; Kochia plant response rating (0 to 100 scale) (kochia (Bassia scoparia) [4]; [21]): 80; Pigweed plant response rating (0 to 100 scale) [5, 21]: 100; Ragweed plant response rating (0 to 100 scale) [6, 21]: 100; Pigweed plant response rating (0 to 100 scale) ([13]; Postemergence, 31 g ai/ha): 80; Pigweed plant response rating (0 to 100 scale) [13, 20]: 90; Ragweed plant response rating (0 to 100 scale) ([14]; Postemergence, 31 g ai/ha): 70; Ragweed plant response rating (0 to 100 scale) [14, 20]: 80; Wheat plant response rating (0 to 100 scale) ([15]; Postemergence, 31 g ai/ha): 40; Wheat plant response rating (0 to 100 scale) [15, 20]: 60; Plant response rating, Barnyardgrass (Flood) [16]: 70; Plant response rating, Ducksalad (Flood) [17]: 70; Plant response rating, Rice (Flood) (rice (Oryza sativa)): 40; Plant response rating, Sedge, Umbrella (Flood) [18]: 90
CO/N=C(/c1ccc(Cl)c(Cl)c1)c1c(O)c(C)nn(C)c1=O [Compound 216]	0	50	0	0	0	0	0	0	0	10	0	0	0	0	0	0	30	80	20	50	Ryegrass, Italian plant response rating (0 to 100 scale) [1, 21]: 10; Barnyardgrass plant response rating (0 to 100 scale) [2, 21]: 0; Foxtail, Giant plant response rating (0 to 100 scale) [3, 21]: 0; Kochia plant response rating (0 to 100 scale) (kochia (Bassia scoparia) [4]; [21]): 0; Pigweed plant response rating (0 to 100 scale) [5, 21]: 0; Ragweed plant response rating (0 to 100 scale) [6, 21]: 0; Pigweed plant response rating (0 to 100 scale) ([13]; Postemergence, 31 g ai/ha): 0; Pigweed plant response rating (0 to 100 scale) [13, 20]: 20; Ragweed plant response rating (0 to 100 scale) ([14]; Postemergence, 31 g ai/ha): 10; Ragweed plant response rating (0 to 100 scale) [14, 20]: 40; Wheat plant response rating (0 to 100 scale) ([15]; Postemergence, 31 g ai/ha): 0; Wheat plant response rating (0 to 100 scale) [15, 20]: 0; Plant response rating, Barnyardgrass (Flood) [16]: 0; Plant response rating, Ducksalad (Flood) [17]: 0; Plant response rating, Rice (Flood) (rice (Oryza sativa)): 0; Plant response rating, Sedge, Umbrella (Flood) [18]: 0
